Source: paper PMC6934184, “Selective DNA-PKcs inhibition extends the therapeutic index of localized radiotherapy and chemotherapy” (The Journal of Clinical Investigation, 2019)

Molecular target: T1, AMPK A2/B1/G1 (Homo sapiens, UniProt P54646)
T1 construct: purchased Thermo Fisher Scientific (Life Technologies) SelectScreen
Test: SelectScreen Z'LYTE
Type: biochemical
Procedure, shortened: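 NU5455 was profiled across the SelectScreen Broad panel of kinase activity and binding assays. Z'LYTE reactions such as CSF1R ran at apparent Km ATP, while the Adapta CAMK1 assay used ATP listed as 10. Values are given as percent.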

T1 sequence (P54646 whole entry): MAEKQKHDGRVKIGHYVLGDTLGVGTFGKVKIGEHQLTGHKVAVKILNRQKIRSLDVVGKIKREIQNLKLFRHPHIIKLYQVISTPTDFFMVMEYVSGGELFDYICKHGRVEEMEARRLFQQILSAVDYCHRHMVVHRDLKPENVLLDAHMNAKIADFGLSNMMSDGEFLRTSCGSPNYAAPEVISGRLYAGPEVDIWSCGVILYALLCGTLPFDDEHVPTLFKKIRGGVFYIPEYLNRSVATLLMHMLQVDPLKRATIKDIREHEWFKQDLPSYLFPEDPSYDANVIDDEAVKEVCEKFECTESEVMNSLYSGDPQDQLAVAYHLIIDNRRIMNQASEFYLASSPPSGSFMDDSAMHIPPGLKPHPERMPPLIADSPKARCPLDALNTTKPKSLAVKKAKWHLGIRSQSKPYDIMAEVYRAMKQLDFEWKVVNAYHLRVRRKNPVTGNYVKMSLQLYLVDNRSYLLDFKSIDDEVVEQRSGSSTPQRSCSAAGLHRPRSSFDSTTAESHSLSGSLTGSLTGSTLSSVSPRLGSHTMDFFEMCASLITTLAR
T1 sequence (Q9Y478 whole entry partner): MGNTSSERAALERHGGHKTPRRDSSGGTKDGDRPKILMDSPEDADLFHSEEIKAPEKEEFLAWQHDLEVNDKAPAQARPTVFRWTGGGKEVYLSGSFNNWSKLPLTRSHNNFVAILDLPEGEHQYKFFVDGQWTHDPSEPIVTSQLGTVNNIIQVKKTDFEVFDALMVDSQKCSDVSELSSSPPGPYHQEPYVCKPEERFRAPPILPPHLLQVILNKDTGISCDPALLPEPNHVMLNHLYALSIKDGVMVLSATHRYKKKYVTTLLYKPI
T1 sequence (P54619 whole entry partner): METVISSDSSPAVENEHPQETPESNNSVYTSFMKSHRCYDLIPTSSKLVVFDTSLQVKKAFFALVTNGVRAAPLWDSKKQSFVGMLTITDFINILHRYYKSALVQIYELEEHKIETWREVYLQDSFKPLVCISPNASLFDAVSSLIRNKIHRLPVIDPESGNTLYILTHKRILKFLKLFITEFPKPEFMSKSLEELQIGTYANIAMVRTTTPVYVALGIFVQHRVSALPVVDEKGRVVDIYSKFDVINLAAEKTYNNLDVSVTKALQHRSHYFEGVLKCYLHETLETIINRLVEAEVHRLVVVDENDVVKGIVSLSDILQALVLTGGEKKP

SMILES: CN(C(=O)CN1CCOCC1)c1ccc2sc3c(-c4cccc5c(=O)cc(N6CC7CCC(C6)O7)oc45)cccc3c2c1 [NU5455]
- inhibition at 1 µM: 2.6%
